This passage reports IC50 results from patent publication US12478617B2, “Lipidated peptide inhibitors of interleukin-23 receptor” (JANSSEN BIOTECH, INC., priority 2021, dated 2025).

In the assay the target is T1, IL-23R (Homo sapiens, UniProt Q5VWK5).
T1 construct: HEK293 cells containing IL-23R, IL-12RP31 and a firefly luciferase reporter gene driven by a STAT-inducible promoter (Promega); host or cells: HEK293
T1 sequence (Q5VWK5 24-629): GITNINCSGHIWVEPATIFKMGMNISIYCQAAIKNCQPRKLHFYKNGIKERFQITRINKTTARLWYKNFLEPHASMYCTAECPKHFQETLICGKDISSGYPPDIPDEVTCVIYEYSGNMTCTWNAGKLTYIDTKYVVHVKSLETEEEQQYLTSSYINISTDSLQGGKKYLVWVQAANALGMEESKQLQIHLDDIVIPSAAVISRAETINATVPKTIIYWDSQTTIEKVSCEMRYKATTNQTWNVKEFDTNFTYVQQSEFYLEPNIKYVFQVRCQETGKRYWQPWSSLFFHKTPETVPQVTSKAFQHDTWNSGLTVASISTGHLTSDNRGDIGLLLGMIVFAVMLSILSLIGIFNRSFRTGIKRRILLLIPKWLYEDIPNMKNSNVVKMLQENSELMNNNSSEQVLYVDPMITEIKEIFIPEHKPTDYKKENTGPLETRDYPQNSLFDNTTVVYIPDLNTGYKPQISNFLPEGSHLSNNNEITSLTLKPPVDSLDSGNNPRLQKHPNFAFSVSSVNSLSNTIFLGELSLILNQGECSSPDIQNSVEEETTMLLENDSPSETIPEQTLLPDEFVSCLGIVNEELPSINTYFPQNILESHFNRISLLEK
Briefly: IL23R Reporter Assay. The format is cell-based. An excerpt: IL-23 binding to IL-23 receptors results in the activation of the Signal Transducer and Activator of Transcription 3 (STAT3) by phosphorylation and downstream signaling events. Accordingly. the ability of the inhibitors described herein to block IL-23 action can be assessed by monitoring the status of STAT3 activation in response to IL-23. This may be accomplished in reporter cell assays or in intact cells such as peripheral blood mononuclear cells (PBMCs).
Compounds were serially diluted in 100% (v/v) DMSO) and plated using an Echo acoustic dispenser (Labcyte) into 1536-well non-treated black assay plates (Corning #9146). […] After 5 h at 37° C., 5% CO2, 95% relative humidity, cells were placed at 20° C. and treated with BioGlo reagent (Promega) according to the Manufacturer's instructions. Luminescence was measured on a Pherastar FSX (BMG LabTech).

Starred links: 1 amine or outer side, 2 acyl side, 3 side chain; linkers in the order of their positions; H or OH if unused. Positions of bridges follow the written chain, without caps; N, C: chain ends. Non-standard residues stand in square brackets, D forms with d. Residues, ends and D or L forms follow the SMILES beside them. Groups on a side chain read outwards from the residue. *: point of attachment. Trp(7-Me) = Cc1cccc2c(C[C@H](N)C(=O)O)c[nH]c12; C18 diacid = O=C(O)CCCCCCCCCCCCCCCCC(=O)*; C16 diacid = O=C(O)CCCCCCCCCCCCCCC(=O)*; γGlu = O=C(O)[C@H](CCC(=O)[*:2])N[*:1]; 2Nal = N[C@@H](Cc1ccc2ccccc2c1)C(=O)O; AEF = NCCOc1ccc(C[C@H](N)C(=O)O)cc1; 3Pal = N[C@@H](Cc1cccnc1)C(=O)O; NMeK = CN[C@@H](CCCCN)C(=O)O; Pen = CC(C)(S)[C@H](N)C(=O)O; Thp = NC1(C(=O)O)CCOCC1; AEEA = NCCOCCOCC(=O)O; Sar = CNCC(=O)O

The term IC50 denotes the concentration needed to halve the response being measured. High values mean lower potency, low ones higher potency. `CC(=O)NCCCC[C@@H]1NC(=O)[C@H](Cc2c[nH]c3c(C)cccc23)NC(=O)[C@H]([C@@H](C)O)NC(=O)[C@H](CC(N)=O)NC(=O)[C@@H](NC(=O)[C@@H](CCCNC(=N)N)NC(C)=O)C(C)(C)SSC(C)(C)[C@@H](C(=O)N[C@@H](Cc2ccc(OCCN)cc2)C(=O)N[C@@H](Cc2ccc3ccccc3c2)C(=O)NC2(C(=O)N[C@@H](CCC(=O)O)C(=O)N[C@@H](CC(N)=O)C(=O)N[C@@H](Cc3cccnc3)C(=O)N(C)CC(=O)N[C@@H](CCCCNC(=O)COCCOCCNC(=O)COCCOCCNC(=O)CC[C@H](NC(=O)CCCCCCCCCCCCCCC(=O)O)C(=O)O)C(N)=O)CCOCC2)NC1=O` [Example 17, MeCO-r-Pen*-N-T-7MeW-K(Ac)-Pen*-AEF-2Nal-THP-E-N-3Pya-Sar-K(PEG2PEG2gEC16OH)-CONH2] (Ac-[dR][Pen]NT[Trp(7-Me)]K(Ac)[Pen][AEF][2Nal][Thp]EN[3Pal][Sar]K([AEEA-AEEA-γGlu-C16 diacid])-NH2; disulfide 2-7) showed an IC50 of 0.036 nM. For `CC(=O)NCCCC[C@@H]1NC(=O)[C@H](Cc2c[nH]c3c(C)cccc23)NC(=O)[C@H]([C@@H](C)O)NC(=O)[C@H](CC(N)=O)NC(=O)[C@@H](NC(C)=O)C(C)(C)SSC(C)(C)[C@@H](C(=O)N[C@@H](Cc2ccc(OCCN)cc2)C(=O)N[C@@H](Cc2ccc3ccccc3c2)C(=O)NC2(C(=O)N[C@@H](CCCCNC(=O)COCCOCCNC(=O)COCCOCCNC(=O)CC[C@H](NC(=O)CCCCCCCCCCCCCCC(=O)O)C(=O)O)C(=O)N[C@@H](CC(N)=O)C(=O)N[C@@H](Cc3cccnc3)C(=O)N(C)CC(N)=O)CCOCC2)NC1=O` [Example 19, MeCO-Pen*-N-T-7MeW-K(Ac)-Pen*-AEF-2Nal-THP-K(PEG2PEG2gEC16OH)-N-3Pya-Sar-CONH2] (Ac-[Pen]NT[Trp(7-Me)]K(Ac)[Pen][AEF][2Nal][Thp]K([AEEA-AEEA-γGlu-C16 diacid])N[3Pal][Sar]-NH2; disulfide 1-6), it took 0.037 nM to reach half-maximal inhibition (IC50). The compound `CC(=O)NCCCC[C@@H]1NC(=O)[C@H](Cc2c[nH]c3c(C)cccc23)NC(=O)[C@H]([C@@H](C)O)NC(=O)[C@H](CCCCNC(=O)COCCOCCNC(=O)COCCOCCNC(=O)CC[C@H](NC(=O)CCCCCCCCCCCCCCCCC(=O)O)C(=O)O)NC(=O)[C@@H](NC(=O)[C@@H](CCCNC(=N)N)NC(C)=O)C(C)(C)SSC(C)(C)[C@@H](C(=O)N[C@@H](Cc2ccc(OCCN)cc2)C(=O)N[C@@H](Cc2ccc3ccccc3c2)C(=O)NC2(C(=O)N[C@@H](CCC(=O)O)C(=O)N[C@@H](CC(N)=O)C(=O)N[C@@H](Cc3cccnc3)C(=O)N(C)CC(N)=O)CCOCC2)NC1=O` [Example 20, MeCO-r-Pen*-K(PEG2PEG2gEC18OH)-T-7MeW-K(Ac)-Pen*-AEF-2Nal-THP-E-N-3Pya-Sar-CONH2] (Ac-[dR][Pen]K([AEEA-AEEA-γGlu-C18 diacid])T[Trp(7-Me)]K(Ac)[Pen][AEF][2Nal][Thp]EN[3Pal][Sar]-NH2; disulfide 2-7) came in with an IC50 of 0.067 nM. The same measure for `CC(=O)NCCCC[C@@H]1NC(=O)[C@H](Cc2c[nH]c3c(C)cccc23)NC(=O)[C@H]([C@@H](C)O)NC(=O)[C@H](CCCCNC(=O)COCCOCCNC(=O)COCCOCCNC(=O)CC[C@H](NC(=O)CCCCCCCCCCCCCCC(=O)O)C(=O)O)NC(=O)[C@@H](NC(=O)[C@@H](CCCNC(=N)N)NC(C)=O)C(C)(C)SSC(C)(C)[C@@H](C(=O)N[C@@H](Cc2ccc(OCCN)cc2)C(=O)N[C@@H](Cc2ccc3ccccc3c2)C(=O)NC2(C(=O)N[C@@H](CCC(=O)O)C(=O)N[C@@H](CC(N)=O)C(=O)N[C@@H](Cc3cccnc3)C(=O)N(C)CC(N)=O)CCOCC2)NC1=O` [Example 21, MeCO-r-Pen*-K(PEG2PEG2gEC16OH)-T-7MeW-K(Ac)-Pen*-AEF-2Nal-THP-E-N-3Pya-Sar-CONH2] (Ac-[dR][Pen]K([AEEA-AEEA-γGlu-C16 diacid])T[Trp(7-Me)]K(Ac)[Pen][AEF][2Nal][Thp]EN[3Pal][Sar]-NH2; disulfide 2-7): 0.033 nM; for `CC(=O)NCCCC[C@@H]1NC(=O)[C@H](Cc2c[nH]c3c(C)cccc23)NC(=O)[C@H]([C@@H](C)O)NC(=O)[C@H](CC(N)=O)NC(=O)[C@@H](NC(=O)[C@@H](CCCNC(=N)N)NC(C)=O)C(C)(C)SSC(C)(C)[C@@H](C(=O)N[C@@H](Cc2ccc(OCCN)cc2)C(=O)N[C@@H](Cc2ccc3ccccc3c2)C(=O)NC2(C(=O)N[C@@H](CCC(=O)O)C(=O)N[C@@H](CC(N)=O)C(=O)N[C@@H](Cc3cccnc3)C(=O)N(C)[C@@H](CCCCNC(=O)COCCOCCNC(=O)COCCOCCNC(=O)CC[C@H](NC(=O)CCCCCCCCCCCCCCC(=O)O)C(=O)O)C(N)=O)CCOCC2)NC1=O` [Example 22, MeCO-r-Pen*-N-T-7MeW-K(Ac)-Pen*-AEF-2Nal-THP-E-N-3Pya-NMeK(PEG2PEG2gEC16OH)-CONH2] (Ac-[dR][Pen]NT[Trp(7-Me)]K(Ac)[Pen][AEF][2Nal][Thp]EN[3Pal][NMeK]([AEEA-AEEA-γGlu-C16 diacid])-NH2; disulfide 2-7): 0.026 nM. The figure for `CC(=O)NCCCC[C@@H]1NC(=O)[C@H](Cc2c[nH]c3c(C)cccc23)NC(=O)[C@H]([C@@H](C)O)NC(=O)[C@H](CC(N)=O)NC(=O)[C@@H](NC(=O)[C@@H](CCCNC(=N)N)NC(=O)COCCOCCNC(=O)COCCOCCNC(=O)CC[C@H](NC(=O)CCCCCCCCCCCCCCC(=O)O)C(=O)O)C(C)(C)SSC(C)(C)[C@@H](C(=O)N[C@@H](Cc2ccc(OCCN)cc2)C(=O)N[C@@H](Cc2ccc3ccccc3c2)C(=O)NC2(C(=O)N[C@@H](CCCCNC(C)=O)C(=O)N[C@@H](CC(N)=O)C(=O)N[C@@H](Cc3cccnc3)C(=O)N(C)CC(N)=O)CCOCC2)NC1=O` [Example 24, HOC16gEPEG2PEG2-r-Pen*-N-T-7MeW-K(Ac)-Pen*-AEF-2Nal-THP-K(Ac)-N-3Pya-Sar-CONH2] ({C16 diacid-γGlu-AEEA-AEEA}-[dR][Pen]NT[Trp(7-Me)]K(Ac)[Pen][AEF][2Nal][Thp]K(Ac)N[3Pal][Sar]-NH2; disulfide 2-7) is 0.017 nM; for `CC(=O)NCCCC[C@@H]1NC(=O)[C@H](Cc2c[nH]c3c(C)cccc23)NC(=O)[C@H]([C@@H](C)O)NC(=O)[C@H](CC(N)=O)NC(=O)[C@@H](NC(=O)[C@@H](CCCNC(=N)N)NC(C)=O)C(C)(C)SSC(C)(C)[C@@H](C(=O)N[C@@H](Cc2ccc(OCCNC(=O)COCCOCCNC(=O)COCCOCCNC(=O)CC[C@H](NC(=O)CCCCCCCCCCCCCCC(=O)O)C(=O)O)cc2)C(=O)N[C@@H](Cc2ccc3ccccc3c2)C(=O)NC2(C(=O)N[C@@H](CCCCNC(C)=O)C(=O)N[C@@H](CC(N)=O)C(=O)N[C@@H](Cc3cccnc3)C(=O)N(C)CC(N)=O)CCOCC2)NC1=O` [Example 26, MeCO-r-Pen*-N-T-7MeW-K(Ac)-Pen*-AEF(PEG2PEG2gEC16OH)-2Nal-THP-K(Ac)-N-3Pya-Sar-CONH2] (Ac-[dR][Pen]NT[Trp(7-Me)]K(Ac)[Pen][AEF]([AEEA-AEEA-γGlu-C16 diacid])[2Nal][Thp]K(Ac)N[3Pal][Sar]-NH2; disulfide 2-7) it is 0.025 nM; for `CC(=O)NCCCC[C@@H]1NC(=O)[C@H](Cc2c[nH]c3c(C)cccc23)NC(=O)[C@H]([C@@H](C)O)NC(=O)[C@H](CC(N)=O)NC(=O)[C@@H](NC(=O)[C@@H](CCCNC(=N)N)NC(C)=O)C(C)(C)SSC(C)(C)[C@@H](C(=O)N[C@@H](Cc2ccc(OCCN)cc2)C(=O)N[C@@H](Cc2ccc3ccccc3c2)C(=O)NC2(C(=O)N[C@@H](CCCCNC(=O)COCCOCCNC(=O)COCCOCCNC(=O)CC[C@H](NC(=O)CCCCCCCCCCCCCCCCC(=O)O)C(=O)O)C(=O)N[C@@H](CC(N)=O)C(=O)N[C@@H](Cc3cccnc3)C(=O)N(C)CC(N)=O)CCOCC2)NC1=O` [Example 27, MeCO-r-Pen*-N-T-7MeW-K(Ac)-Pen*-AEF-2Nal-THP-K(PEG2PEG2gEC18OH)-N-3Pya-Sar-CONH2] (Ac-[dR][Pen]NT[Trp(7-Me)]K(Ac)[Pen][AEF][2Nal][Thp]K([AEEA-AEEA-γGlu-C18 diacid])N[3Pal][Sar]-NH2; disulfide 2-7) it is 0.059 nM. The figure for `CC(=O)NCCCC[C@@H]1NC(=O)[C@H](Cc2c[nH]c3c(C)cccc23)NC(=O)[C@H]([C@@H](C)O)NC(=O)[C@H](CC(N)=O)NC(=O)[C@@H](NC(C)=O)C(C)(C)SSC(C)(C)[C@@H](C(=O)N[C@@H](Cc2ccc(OCCN)cc2)C(=O)N[C@@H](Cc2ccc3ccccc3c2)C(=O)NC2(C(=O)N[C@@H](CCCCNC(=O)CC[C@H](NC(=O)CCCCCCCCCCCCCCC(=O)O)C(=O)O)C(=O)N[C@@H](CC(N)=O)C(=O)N[C@@H](Cc3cccnc3)C(=O)N(C)CC(N)=O)CCOCC2)NC1=O` [Example 29, MeCO-Pen*-N-T-7MeW-K(Ac)-Pen*-AEF-2Nal-THP-K(gEC16OH)-N-3Pya-Sar-CONH2] (Ac-[Pen]NT[Trp(7-Me)]K(Ac)[Pen][AEF][2Nal][Thp]K([γGlu-C16 diacid])N[3Pal][Sar]-NH2; disulfide 1-6) is 0.06 nM.
